Test results reported in ChEMBL document CHEMBL1146198, “In vitro studies with DQ-113 and comparison fluoroquinolones to determine propensities to select resistance in gram-positive cocci” (2007).
In brackets after ≈: the same amount, converted by molar mass.

Legend:
Format in all cases: functional
Streptococcus pneumoniae [1] = assay: Effect on 8 ug/ml ciprofloxacin-selected penicillin-resistant Streptococcus pneumoniae 216 mutant after five passages assessed as susceptibility by agar dilution method
Streptococcus pneumoniae [2] = assay: (§1) Effect on 4 ug/ml levofloxacin-selected penicillin-resistant Streptococcus pneumoniae 216 mutant after five passages assessed as susceptibility by agar dilution method
Streptococcus pneumoniae [3] = assay: Effect on 16 ug/ml ciprofloxacin-selected penicillin-resistant Streptococcus pneumoniae 335 mutant after five passages assessed as susceptibility by agar dilution method
Streptococcus pneumoniae [4] = assay: Effect on 4 ug/ml levofloxacin-selected penicillin-resistant Streptococcus pneumoniae 334 mutant after five passages assessed as susceptibility by agar dilution method
Streptococcus pneumoniae [5] = assay: Effect on 32 ug/ml ciprofloxacin-selected penicillin-resistant Streptococcus pneumoniae 334 mutant after five passages assessed as susceptibility by agar dilution method
Streptococcus pneumoniae [6] = assay: Effect on 0.06 ug/ml DQ113-selected penicillin-resistant Streptococcus pneumoniae 218 mutant after five passages assessed as susceptibility by agar dilution method
Streptococcus pneumoniae [7] = assay: Susceptibility of penicillin-resistant Streptococcus pneumoniae 216 by agar dilution method
Enterococcus [8] = assay: Susceptibility of drug-selected vancomycin-resistant Enterococcus species mutant by agar dilution method
Streptococcus pneumoniae [9] = assay: (§2) Effect on 0.5 ug/ml sitafloxacin-selected penicillin-resistant Streptococcus pneumoniae 216 mutant after five passages assessed as susceptibility by agar dilution method
Streptococcus pneumoniae [10] = assay: Effect on 0.03 ug/ml DQ113-selected penicillin-resistant Streptococcus pneumoniae 216 mutant after five passages assessed as susceptibility by agar dilution method
Streptococcus pneumoniae [11] = assay: Effect on 16 ug/ml levofloxacin-selected penicillin-resistant Streptococcus pneumoniae 335 mutant after five passages assessed as susceptibility by agar dilution method
Streptococcus pneumoniae [12] = assay: Effect on 0.06 ug/ml DQ113-selected penicillin-resistant Streptococcus pneumoniae 334 mutant after five passages assessed as susceptibility by agar dilution method
Streptococcus pneumoniae [13] = assay: Effect on 0.5 ug/ml […]-selected penicillin-resistant Streptococcus pneumoniae 335 mutant after five passages assessed as susceptibility by agar dilution method
Streptococcus pneumoniae [14] = assay: Effect on 32 ug/ml ciprofloxacin-selected penicillin-resistant Streptococcus pneumoniae 216 mutant after five passages assessed as susceptibility by agar dilution method
Streptococcus pneumoniae [15] = assay: Effect on 16 ug/ml ciprofloxacin-selected penicillin-resistant Streptococcus pneumoniae 218 mutant after five passages assessed as susceptibility by agar dilution method
Streptococcus pneumoniae [16] = assay: Effect on 2 ug/ml moxifloxacin-selected penicillin-resistant Streptococcus pneumoniae 216 mutant after five passages assessed as susceptibility by agar dilution method
Staphylococcus aureus = assay: Susceptibility of methicillin-sensitive/resistant Staphylococcus aureus single-step mutant by agar dilution method
Streptococcus pneumoniae [17] = assay: Susceptibility of penicillin-resistant Streptococcus pneumoniae 218 by agar dilution method
Streptococcus pneumoniae [18] = assay: Effect on 1 ug/ml moxifloxacin-selected penicillin-resistant Streptococcus pneumoniae 335 mutant after five passages assessed as susceptibility by agar dilution method
Streptococcus pneumoniae [19] = assay: Effect on 0.5 ug/ml moxifloxacin-selected penicillin-resistant Streptococcus pneumoniae 216 mutant after five passages assessed as susceptibility by agar dilution method
Streptococcus pneumoniae [20] = assay: Effect on 0.06 ug/ml DQ113-selected penicillin-resistant Streptococcus pneumoniae 335 mutant after five passages assessed as susceptibility by agar dilution method
Streptococcus pneumoniae [21] = assay: Susceptibility of penicillin-resistant Streptococcus pneumoniae 217 by agar dilution method
Streptococcus pneumoniae [22] = assay: Effect on 0.5 ug/ml sitafloxacin-selected penicillin-resistant Streptococcus pneumoniae 334 mutant after five passages assessed as susceptibility by agar dilution method
Streptococcus pneumoniae [23] = assay: as §1; remark: listed apart in the source
Streptococcus pneumoniae [24] = assay: Effect on 2 ug/ml moxifloxacin-selected penicillin-resistant Streptococcus pneumoniae 218 mutant after five passages assessed as susceptibility by agar dilution method
Streptococcus pneumoniae [25] = assay: Susceptibility of penicillin-resistant Streptococcus pneumoniae 334 by agar dilution method
Streptococcus pneumoniae [26] = assay: Effect on 1 ug/ml moxifloxacin-selected penicillin-resistant Streptococcus pneumoniae 334 mutant after five passages assessed as susceptibility by agar dilution method
Streptococcus pneumoniae [27] = assay: Effect on 0.5 ug/ml sitafloxacin-selected penicillin-resistant Streptococcus pneumoniae 218 mutant after five passages assessed as susceptibility by agar dilution method
Streptococcus pneumoniae [28] = assay: as §2; remark: listed apart in the source
Streptococcus pneumoniae [29] = assay: Susceptibility of penicillin-resistant Streptococcus pneumoniae 335 by agar dilution method
Streptococcus pneumoniae [30] = assay: Effect on 16 ug/ml levofloxacin-selected penicillin-resistant Streptococcus pneumoniae 218 mutant after five passages assessed as susceptibility by agar dilution method
Enterococcus [31] = assay: Susceptibility of vancomycin-resistant Enterococcus species single-step mutant by agar dilution method
Streptococcus pneumoniae [32] = assay: Effect on 0.06 ug/ml DQ113-selected penicillin-resistant Streptococcus pneumoniae 216 mutant after five passages assessed as susceptibility by agar dilution method

Row | SMILES | MIC (Streptococcus pneumoniae [1]) [µg/mL] | MIC (Streptococcus pneumoniae [2]) [µg/mL] | MIC (Streptococcus pneumoniae [3]) [µg/mL] | MIC (Streptococcus pneumoniae [4]) [µg/mL] | MIC (Streptococcus pneumoniae [5]) [µg/mL] | MIC (Streptococcus pneumoniae [6]) [µg/mL] | MIC (Streptococcus pneumoniae [9]) [µg/mL] | MIC (Streptococcus pneumoniae [10]) [µg/mL] | MIC (Streptococcus pneumoniae [11]) [µg/mL] | MIC (Streptococcus pneumoniae [12]) [µg/mL] | MIC (Streptococcus pneumoniae [13]) [µg/mL] | MIC (Streptococcus pneumoniae [14]) [µg/mL] | MIC (Streptococcus pneumoniae [15]) [µg/mL] | MIC (Streptococcus pneumoniae [16]) [µg/mL] | MIC (Staphylococcus aureus) [µg/mL] | MIC (Streptococcus pneumoniae [17]) [µg/mL] | MIC (Streptococcus pneumoniae [18]) [µg/mL] | MIC (Streptococcus pneumoniae [19]) [µg/mL] | MIC (Streptococcus pneumoniae [20]) [µg/mL] | MIC (Enterococcus [31]) [µg/mL] | also measured
1 | COc1c(N2C[C@@H]3CCCN[C@@H]3C2)c(F)cc2c(=O)c(C(=O)O)cn(C3CC3)c12 [MOXIFLOXACIN] | 2 | 0.25 | 0.5 | 2 | 1 | 1 (≈ 2.49 µM) | 2 | 0.25 (≈ 0.623 µM) | 8 | 2 (≈ 4.98 µM) | 1 | 0.5 | 4 | 8 | 0.5 (≈ 1.25 µM) | 0.12 (≈ 0.299 µM) | 2 | 1 | 1 (≈ 2.49 µM) | 8 (≈ 19.9 µM) | MIC (Streptococcus pneumoniae [7]): 0.06 µg/mL (≈ 0.149 µM); MIC (Enterococcus [8]): 64 µg/mL (≈ 159 µM); MIC (Streptococcus pneumoniae [21]): 0.25 µg/mL (≈ 0.623 µM); MIC (Streptococcus pneumoniae [22]): 4 µg/mL; MIC (Streptococcus pneumoniae [23]): 0.25 µg/mL; MIC (Streptococcus pneumoniae [24]): 4 µg/mL; MIC (Streptococcus pneumoniae [25]): 0.12 µg/mL (≈ 0.299 µM); MIC (Streptococcus pneumoniae [26]): 0.5 µg/mL; MIC (Streptococcus pneumoniae [27]): 1 µg/mL; MIC (Streptococcus pneumoniae [28]): 2 µg/mL; MIC (Streptococcus pneumoniae [29]): 0.12 µg/mL (≈ 0.299 µM); MIC (Streptococcus pneumoniae [30]): 1 µg/mL; MIC (Streptococcus pneumoniae [32]): 2 µg/mL (≈ 4.98 µM)
2 | C[C@H]1COc2c(N3CCN(C)CC3)c(F)cc3c(=O)c(C(=O)O)cn1c23.C[C@H]1COc2c(N3CCN(C)CC3)c(F)cc3c(=O)c(C(=O)O)cn1c23.O [LEVOFLOXACIN] | – | – | – | – | – | – | – | – | 64 | – | – | – | – | 64 | 2 | – | – | – | – | 16 | MIC (Enterococcus [8]; read-out: MIC): 256 µg/mL
3 | O=C(O)c1cn(C2CC2)c2cc(N3CCNCC3)c(F)cc2c1=O [CIPROFLOXACIN] | 32 | 4 | 16 | 32 | 32 | 8 (≈ 24.1 µM) | 32 | 4 (≈ 12.1 µM) | 128 | 8 (≈ 24.1 µM) | 16 | 32 | 128 | 128 | – | 1 (≈ 3.02 µM) | 4 | 4 | 4 (≈ 12.1 µM) | 16 (≈ 48.3 µM) | MIC (Streptococcus pneumoniae [21]): 1 µg/mL (≈ 3.02 µM); MIC (Streptococcus pneumoniae [22]): 64 µg/mL; MIC (Streptococcus pneumoniae [23]): 16 µg/mL; MIC (Streptococcus pneumoniae [24]): 128 µg/mL; MIC (Streptococcus pneumoniae [25]): 1 µg/mL (≈ 3.02 µM); MIC (Streptococcus pneumoniae [26]): 8 µg/mL; MIC (Streptococcus pneumoniae [27]): 16 µg/mL; MIC (Streptococcus pneumoniae [28]): 32 µg/mL; MIC (Streptococcus pneumoniae [29]): 1 µg/mL (≈ 3.02 µM); MIC (Streptococcus pneumoniae [30]): 8 µg/mL; MIC (Streptococcus pneumoniae [32]): 16 µg/mL (≈ 48.3 µM)
4 | N[C@@H]1CN(c2c(F)cc3c(=O)c(C(=O)O)cn(C4C[C@@H]4F)c3c2Cl)CC12CC2 (single isomer, unassigned) [SITAFLOXACIN ANHYDROUS] | 0.5 | 0.12 | 0.5 | 0.5 | 0.5 | 1 (≈ 2.44 µM) | 2 | 0.25 (≈ 0.61 µM) | 4 | 0.5 (≈ 1.22 µM) | 2 | 1 | 2 | 4 | 0.25 (≈ 0.61 µM) | 0.12 (≈ 0.293 µM) | 0.5 | 0.5 | 0.5 (≈ 1.22 µM) | 4 (≈ 9.76 µM) | MIC (Streptococcus pneumoniae [7]): 0.06 µg/mL (≈ 0.146 µM); MIC (Enterococcus [8]; read-out: MIC): 8 µg/mL (≈ 19.5 µM); MIC (Streptococcus pneumoniae [21]): 0.12 µg/mL (≈ 0.293 µM); MIC (Streptococcus pneumoniae [22]): 0.5 µg/mL; MIC (Streptococcus pneumoniae [23]): 0.5 µg/mL; MIC (Streptococcus pneumoniae [24]): 1 µg/mL; MIC (Streptococcus pneumoniae [25]): 0.06 µg/mL (≈ 0.146 µM); MIC (Streptococcus pneumoniae [26]): 0.12 µg/mL; MIC (Streptococcus pneumoniae [27]): 1 µg/mL; MIC (Streptococcus pneumoniae [28]): 1 µg/mL; MIC (Streptococcus pneumoniae [29]): 0.12 µg/mL (≈ 0.293 µM); MIC (Streptococcus pneumoniae [30]): 0.5 µg/mL; MIC (Streptococcus pneumoniae [32]): 0.5 µg/mL (≈ 1.22 µM)
5 | Cc1c(N2C[C@@H](F)[C@@H](C3(N)CC3)C2)c(F)c(N)c2c(=O)c(C(=O)O)cn([C@@H]3C[C@@H]3F)c12 [DQ-113] | 0.015 | 0.002 | 0.007 | 0.03 | 0.03 | 0.03 (≈ 0.0687 µM) | 0.03 | 0.007 (≈ 0.016 µM) | 0.12 | 0.06 (≈ 0.137 µM) | 0.03 | 0.015 | 0.06 | 0.12 | 0.03 (≈ 0.0687 µM) | 0.004 (≈ 0.00917 µM) | 0.03 | 0.015 | 0.015 (≈ 0.0344 µM) | 2 (≈ 4.58 µM) | MIC (Streptococcus pneumoniae [7]): 0.001 µg/mL (≈ 0.00229 µM); MIC (Enterococcus [8]; read-out: MIC): 8 µg/mL (≈ 18.3 µM); MIC (Streptococcus pneumoniae [21]): 0.004 µg/mL (≈ 0.00917 µM); MIC (Streptococcus pneumoniae [22]): 0.06 µg/mL; MIC (Streptococcus pneumoniae [23]): 0.007 µg/mL; MIC (Streptococcus pneumoniae [24]): 0.03 µg/mL; MIC (Streptococcus pneumoniae [25]): 0.004 µg/mL (≈ 0.00917 µM); MIC (Streptococcus pneumoniae [26]): 0.015 µg/mL; MIC (Streptococcus pneumoniae [27]): 0.015 µg/mL; MIC (Streptococcus pneumoniae [28]): 0.03 µg/mL; MIC (Streptococcus pneumoniae [29]): 0.002 µg/mL (≈ 0.00458 µM); MIC (Streptococcus pneumoniae [30]): 0.015 µg/mL; MIC (Streptococcus pneumoniae [32]): 0.06 µg/mL (≈ 0.137 µM)
